Experimental data taken from patent US6727264B1 (Synaptic Pharmaceutical Corporation, priority 2001, dated 2004).
Like-named read-outs stand apart in the source and are kept apart here.

Target: rat MCH-1 (Rattus norvegicus, UniProt P97639)
Assay: Radioligand binding assay at cloned rat MCH1 receptor ([3H] Compound A)
Parameters: host or cells: Peak rapid 293 (Peakr293) cells, transient calcium phosphate transfection, membranes
Conditions: cloned rat MCH1 receptor, 0.08 nM [3H] Compound A, read-out: Ki (nM) rMCH1

Sequence of rat MCH-1 (P97639 whole entry): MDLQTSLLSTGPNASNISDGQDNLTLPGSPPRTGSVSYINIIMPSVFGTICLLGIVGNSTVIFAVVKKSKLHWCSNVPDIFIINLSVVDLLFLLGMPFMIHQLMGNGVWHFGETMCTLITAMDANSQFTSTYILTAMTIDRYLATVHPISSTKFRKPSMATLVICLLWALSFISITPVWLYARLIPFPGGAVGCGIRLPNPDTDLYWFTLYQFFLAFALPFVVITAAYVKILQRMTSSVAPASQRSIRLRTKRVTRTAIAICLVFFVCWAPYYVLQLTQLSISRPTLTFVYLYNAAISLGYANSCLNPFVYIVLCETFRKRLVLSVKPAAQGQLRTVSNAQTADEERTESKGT

| Ki (membranes from Peakr293 cells) | Ki (Peakr293 cell membranes) | SMILES |
| --- | --- | --- |
| 42.9 nM |  | CC(C)C(=O)Nc1cccc(C2CCN(C[C@H](C)COc3ccccc3Br)CC2)c1 [Example 365] |
|  | 12.2 nM | CCC(=O)Nc1cccc(C2CCN(Cc3cn(-c4ccccc4F)c4cc(Cl)ccc34)CC2)c1 [Example 472] |
|  | 14.2 nM | CC(C)C(=O)Nc1cccc(C2CCN(CCCNC(=O)c3cccnc3Oc3ccc(Cl)cc3)CC2)c1 [Example 641] |
|  | 40.4 nM | CC(C)C(=O)Nc1cccc(C2CCN(CC[C@H](NC(=S)NC(C)(C)C)c3ccccc3)CC2)c1 [Example 606] |
| 43.6 nM |  | CC(C)C(=O)Nc1cccc(C2CCN(CCC(=O)c3ccc(Cl)cc3)CC2)c1 [Example 118] |
| 8.3 nM |  | CCCc1nn(-c2ccc(Cl)cc2)cc1C(=O)N[C@@H](CCN1CCC(c2cccc(NC(=O)C(C)C)c2)CC1)c1ccccc1 [Example 316] |
|  | 16.6 nM | CC(C)C(=O)Nc1cccc(C2CCN(CCCc3cn(-c4ccccc4)c4ccccc34)CC2)c1 [Example 407] |
| 281 nM |  | CC(C)C(=O)Nc1cccc(C2CCN(C[C@H](C)COc3ccccc3F)CC2)c1 [Example 362] |
|  | 4.5 nM | Cc1cccc2c(CCCN3CCC(c4cccc(NC(=O)C(C)C)c4)CC3)c(-c3ccc(F)cc3)[nH]c12 [Example 716] |
|  | 7.1 nM | CC(C)C(=O)Nc1cccc(C2CCN(CCCc3c(-c4ccc(C(F)(F)F)cc4)n(C)c4ccccc34)CC2)c1 [Example 682] |
| 26.3 nM |  | CC(C)C(=O)Nc1cccc(C2CCN(CCc3c(-c4ccccc4)n(C)c4ccccc34)CC2)c1 [Example 386] |
|  | 36.4 nM | CC(C)C(=O)Nc1cccc(C2CCN(CCCc3c(-c4ccc([N+](=O)[O-])cc4)n(-c4ccccc4)c4ccccc34)CC2)c1 [Example 789] |
|  | 85.3 nM | CC(C)C(=O)Nc1cccc(C2CCN(CCCNS(=O)(=O)c3ccc(C(C)(C)C)cc3)CC2)c1 [Example 645] |
|  | 121 nM | CSc1ccccc1NC(=O)N[C@@H](CCN1CCC(c2cccc(NC(=O)C(C)C)c2)CC1)c1ccccc1 [Example 612] |
| 646 nM |  | CC(C)C(=O)Nc1cccc(C2CCN(C[C@@H](C)COc3cccc(F)c3)CC2)c1 [Example 366] |
|  | 5.7 nM | CC(=O)c1cccc(OC(CCCCCN2CCC(c3cccc(NC(=O)C(C)C)c3)CC2)c2ccc(Cl)cc2)c1 (stereo not shown) [Example 912] |
|  | 10.2 nM | CC(C)C(=O)Nc1cccc(C2CCN(CCCc3c(-c4cccc(I)c4)n(C)c4ccccc34)CC2)c1 [Example 738] |
|  | 38.2 nM | CC(C)C(=O)Nc1cccc(C2CCN(CCCCCC(O)c3ccc(Cl)cc3)CC2)c1 (stereo not shown) [Example 818] |
| 2.3 nM |  | CC(C)C(=O)Nc1cccc(C2CCN(CCC/C(=N\Nc3ccccn3)c3ccccc3)CC2)c1 [Example 94] |
| 21.9 nM |  | CC(C)C(=O)Nc1cccc(C2CCN(CCCc3c(-c4ccccc4)n(C)c4ccccc34)CC2)c1 [Example 391] |
| 76.8 nM |  | CC(C)C(=O)Nc1cccc(C2CCN(CC[C@H](NC(=O)c3ccc([N+](=O)[O-])o3)c3ccccc3)CC2)c1 [Example 324] |
|  | 16.6 nM | CC(C)C(=O)Nc1cccc(C2CCN(CCCc3c(-c4ccc(Cl)cc4)[nH]c4ccc(OC(F)(F)F)cc34)CC2)c1 [Example 703] |
|  | 23.8 nM | Cc1cccc2c(CCCN3CCC(c4cccc(NC(=O)C(C)C)c4)CC3)c(-c3cccc([N+](=O)[O-])c3)[nH]c12 [Example 773] |

| Ki (membranes from Peakr293 cells) | Ki (Peakr293 cell membranes) | SMILES |
| --- | --- | --- |
|  | 9.9 nM | CC(C)C(=O)Nc1cccc(C2CCN(CCCc3c(-c4ccccc4Cl)[nH]c4ccc(OC(F)(F)F)cc34)CC2)c1 [Example 731] |
| 10.3 nM |  | CC(C)C(=O)Nc1cccc(C2CCN(CCCC(OC(=O)Cc3ccc(F)cc3)c3ccccc3)CC2)c1 (stereo not shown) [Example 285] |
|  | 12.6 nM | CC(C)C(=O)Nc1cccc(C2CCN(CCCc3c[nH]c4ccc(OC(F)(F)F)cc34)CC2)c1 [Example 416] |
| 152 nM |  | CCOC(=O)c1cc(-c2ccc(Cl)cc2)oc1CN1CCC(c2cccc(NC(=O)C(C)C)c2)CC1 [Example 222, ETHYL 5-(4-CHLOROPHENYL)-2-({4-[3-(ISOBUTYRYLAMINO)PHENYL]-1-PIPERIDINYL}METHYL)-3-FUROATE] |
|  | 12.7 nM | COc1ccc2[nH]c(-c3cccc([N+](=O)[O-])c3)c(CCCN3CCC(c4cccc(NC(=O)C(C)C)c4)CC3)c2c1 [Example 770] |
|  | 122 nM | CC(C)C(=O)Nc1cccc(C2CCN(CCCc3c(-c4ccccc4I)n(-c4ccccc4)c4ccccc34)CC2)c1 [Example 792] |
| 693 nM |  | COc1ccc(O[C@H](CN2CCC(c3cccc(NC(=O)C(C)C)c3)CC2)c2ccccc2)cc1OC [Example 336] |
| 7.2 nM |  | CC(C)C(=O)Nc1cccc(C2CCN(CCC(Oc3ccc(F)cc3)c3ccc4c(c3)CCC4)CC2)c1 (stereo not shown) [Example 162] |
|  | 23.1 nM | CC(=O)Nc1cccc(C2CCN(CCCNC(=O)C3=C(C)NC(=O)CC3c3ccc(F)c(F)c3)CC2)c1 (stereo not shown) [Example 623] |
|  | 18.4 nM | CC(C)C(=O)Nc1cccc(C2CCN(Cc3ccc4c(ccn4-c4ccccc4-c4ccccc4)c3)CC2)c1 [Example 846] |
| 117 nM |  | CC(=O)c1cccc(O[C@@H](CCN2CCC(c3cccc(N(C)C(=O)C(C)C)c3)CC2)c2ccccc2)c1 [Example 355] |
|  | 228 nM | CC(C)C(=O)Nc1cccc(C2CCN(Cc3cc4ccccc4n3C)CC2)c1 [Example 829] |
|  | 11.6 nM | CC(C)C(=O)Nc1cccc(C2CCN(CCCCC(Oc3ccc(Br)cc3)c3ccc(Cl)cc3)CC2)c1 (stereo not shown) [Example 936] |
| 308 nM |  | COc1ccccc1OCCCCN1CCC(c2cccc(NC(=O)C(C)C)c2)CC1 [Example 378] |
| 321 nM |  | CC(C)C(=O)Nc1cccc(C2CCN(Cc3ccc(-n4ccnc4)cc3)CC2)c1 [Example 256] |
|  | 50.3 nM | CCC(=O)Nc1cccc(C2CCN(CCCCC(=O)c3cccc(F)c3)CC2)c1 [Example 555] |
| 110 nM |  | Cc1nn(C)c2ncc(C(=O)N[C@@H](CCN3CCC(c4cccc(NC(=O)C(C)C)c4)CC3)c3ccccc3)c(Cl)c12 [Example 317] |
|  | 2.9 nM | CC(C)C(=O)Nc1cccc(C2CCN(CCCc3cn(C)c4ccccc34)CC2)c1 [Example 414] |
|  | 18.1 nM | CC(C)C(=O)Nc1cccc(C2CCN(CCCc3c(-c4ccccc4Br)[nH]c4ccc(OC(F)(F)F)cc34)CC2)c1 [Example 782] |
| 12.1 nM |  | CC(C)C(=O)Nc1cccc(C2CCN(CCCOc3ccccc3Br)CC2)c1 [Example 350] |
|  | 4.9 nM | CC(C)C(=O)Nc1cccc(C2CCN(CCCc3c(-c4ccccc4Br)[nH]c4ccccc34)CC2)c1 [Example 775] |
|  | 18.2 nM | Cc1ccc2[nH]c(-c3ccc([N+](=O)[O-])cc3)c(CCCN3CCC(c4cccc(NC(=O)C(C)C)c4)CC3)c2c1 [Example 776] |
|  | 48 nM | CC(C)C(=O)Nc1cccc(C2CCN(Cc3ccc4c(ccn4-c4cccc5ccccc45)c3)CC2)c1 [Example 853] |

| Ki (membranes from Peakr293 cells) | Ki (Peakr293 cell membranes) | SMILES |
| --- | --- | --- |
|  | 8.1 nM | O=C(Nc1cccc(C2CCN(Cc3cn(-c4cccc(Cl)c4)c4cc(Cl)ccc34)CC2)c1)C1CC1 [Example 479] |
| 27.3 nM |  | CC(C)C(=O)Nc1cccc(C2CCN(CCCCCn3ccc4ccccc43)CC2)c1 [Example 97] |
|  | 530 nM | CC(C)C(=O)Nc1cccc(C2CCN(CC[C@H](NC(=O)Nc3ccccc3[N+](=O)[O-])c3ccccc3)CC2)c1 [Example 610] |
| 11.9 nM |  | Cc1onc(-c2c(Cl)cccc2Cl)c1C(=O)OCCCCCCN1CCC(c2cccc(NC(=O)C(C)C)c2)CC1 [Example 297, 6-{4-[3-(ISOBUTYRYLAMINO)PHENYL]-1-PIPERIDINYL}HEXYL 3-(2,6-DICHLOROPHENYL)-5-METHYL-4-ISOXAZOLECARBOXYLATE] |
|  | 23.4 nM | COc1ccc(-n2cc(CN3CCC(c4cccc(NC(=O)C(C)C)c4)CC3)c3ccccc32)cc1 [Example 443] |
| 79.6 nM |  | CC(C)C(=O)Nc1cccc(C2CCN(Cc3c[nH]c(-c4ccccc4)n3)CC2)c1 [Example 203] |
|  | 114 nM | CC(C)C(=O)Nc1cccc(C2CCN(CCCNC(=O)N3C(=O)OC[C@H]3c3ccc(F)c(F)c3)CC2)c1 [Example 573] |
| 137 nM |  | CC(C)C(=O)Nc1cccc(C2CCN(Cc3cccc(Oc4cc(Cl)cc(Cl)c4)c3)CC2)c1 [Example 207, N-(3-{1-[3-(3,5-dichlorophenoxy)benzyl]-4-piperidinyl}phenyl)-2-methylpropanamide] |
| 29 nM |  | Cc1onc(-c2c(Cl)cccc2Cl)c1C(=O)NCCCN1CCC(c2cccc(NC(=O)C(C)C)c2)CC1 [Example 332] |
| 38.8 nM |  | CC(C)C(=O)Nc1cccc(C2CCN(CCC(O)c3ccc(Br)cc3)CC2)c1 (stereo not shown) [Example 129] |
|  | 1.3 nM | CC(C)C(=O)Nc1cccc(C2CCN(Cc3cn(-c4ccc([N+](=O)[O-])cc4)c4ccccc34)CC2)c1 [Example 438] |
| 428 nM |  | CC(C)C(=O)Nc1cccc(C2CCN(C[C@@H](C)COc3cccc(Cl)c3)CC2)c1 [Example 373] |
|  | 152 nM | CC(C)C(=O)Nc1cccc(C2CCN(CCCc3c(-c4cccc(Cl)c4)n(-c4ccccc4)c4ccccc34)CC2)c1 [Example 725] |
| 7.8 nM |  | CC(C)C(=O)Nc1cccc(C2CCN(Cc3ccc4c(ccn4-c4ccc(F)cc4)c3)CC2)c1 [Example 101] |
|  | 12.7 nM | Cc1ccccc1-n1cc(CN2CCC(c3cccc(NC(=O)C(C)C)c3)CC2)c2ccccc21 [Example 452] |
|  | 37.8 nM | CC(C)C(=O)Nc1cccc(C2CCN(CCCn3ccc4ccccc43)CC2)c1 [Example 844] |
|  | 15.5 nM | COC(=O)c1ccccc1-n1ccc2cc(CN3CCC(c4cccc(NC(=O)C(C)C)c4)CC3)ccc21 [Example 843, METHYL 2-[5-({4-[3-(ISOBUTYRYLAMINO)PHENYL]-1-PIPERIDINYL}METHYL)-1H-INDOL-1-YL]BENZOATE] |
|  | 2 nM | COc1ccc2[nH]c(-c3ccc(F)cc3)c(CCCN3CCC(c4cccc(NC(=O)C(C)C)c4)CC3)c2c1 [Example 692] |
|  | 337 nM | CC(C)C(=O)Nc1cccc(C2CCN(CCCC(=O)c3ccc(C(C)(C)C)cc3)CC2)c1 [Example 946] |
|  | 38.3 nM | COC(=O)c1ccc(-n2ccc3c(CN4CCC(c5cccc(NC(=O)C(C)C)c5)CC4)cccc32)cc1 [Example 834, METHYL 4-[4-({4-[3-(ISOBUTYRYLAMINO)PHENYL]-1-PIPERIDINYL)METHYL)-1H-INDOL-1-YL]BENZOATE] |
|  | 223 nM | CC(C)C(=O)Nc1cccc(C2CCN(CC[C@H](NS(C)(=O)=O)c3ccccc3)CC2)c1 [Example 597] |
